Here are results for 5 compounds from patent US8440646B1 (priority 2006, dated 2013).

Data set [1] deals with CHO-K1. The settings on record: Chinese hamster.
The subject of data set [2] is S. pneumoniae 700905. The data set can be described thus: microbe, parasite or virus in culture. The settings on record: Streptococcus pneumoniae. It is filed as cell-based.
In data set [3] the test system is S. aureus MRSA5. The data set can be described thus: microbe, parasite or virus in culture. It is filed as cell-based. The note with it: Staphylococcus aureus.
The test system of data set [4] is E. faecium 494. The data set can be described thus: microbe, parasite or virus in culture. The note with it: Enterococcus faecium. It is filed as cell-based.
Data set [5] relates to B. anthracis V770. The data set can be described thus: microbe, parasite or virus in culture. The note with it: Bacillus anthracis. Type of data set: cell-based.
Data set [6] concerns S. pneumoniae 157E. The data set can be described thus: animal or person. The note with it: Streptococcus pneumoniae, 157E, in Mus musculus, 48 h, read-out: % survival; for responders at 5 mg/kg: sc. It is filed as in vivo, mice.
Data set [7] relates to COS-1. The settings on record: African green monkey.
The subject of data set [8] is E. faecalis 29212. The data set can be described thus: microbe, parasite or virus in culture. Type of data set: cell-based. The note with it: Enterococcus faecalis.
Data set [9] concerns B. anthracis Ame. As to the kind of experiment: microbe, parasite or virus in culture. It is filed as cell-based. The note with it: Bacillus anthracis.
For data set [10], the system named is B. anthracis Vollum1B. As to the kind of experiment: microbe, parasite or virus in culture. It is filed as cell-based. The note with it: Bacillus anthracis.
The test system of data set [11] is B. anthracis Sterne. As to the kind of experiment: microbe, parasite or virus in culture. The note with it: Bacillus anthracis. Type of data set: cell-based.
Data set [12] relates to B. cereus 98/2620. The data set can be described thus: microbe, parasite or virus in culture. It is filed as cell-based. The note with it: Bacillus cereus.
Data set [13] concerns B. cereus 98/2658. As to the kind of experiment: microbe, parasite or virus in culture. Type of data set: cell-based. The note with it: Bacillus cereus.
Data set [14] has as its system Peptidoglycan synthesis of S. aureus RN450. The data set can be described thus: microbe, parasite or virus in culture. Type of data set: cell-based. The note with it: Staphylococcus aureus.
In data set [15] the test system is S. aureus RN450. The data set can be described thus: microbe, parasite or virus in culture. It is filed as cell-based. The settings on record: Staphylococcus aureus.
Data set [16] has as its system 16S rRNA. The note with it: cited from earlier work.
Data set [17] concerns protein synthesis. The settings on record: cited from earlier work.
The subject of data set [18] is S. pneumoniae PBS1339. More on the design: species or system mice. The note with it: mouse, in vivo.
In data set [19] the test system is B. cereus 97/4144. As to the kind of experiment: microbe, parasite or virus in culture. Type of data set: cell-based. The settings on record: Bacillus cereus.
The subject of data set [20] is S. pneumoniae 157E. As to the kind of experiment: microbe, parasite or virus in culture. Type of data set: cell-based. The note with it: Streptococcus pneumoniae.
In data set [21] the test system is S. aureus RN4250. The data set can be described thus: microbe, parasite or virus in culture. It is filed as cell-based.
Data set [22] has as its system Protein synthesis of S. aureus RN450. As to the kind of experiment: microbe, parasite or virus in culture. It is filed as cell-based. The note with it: Staphylococcus aureus.
Data set [23] has as its system B. anthracis V770NPIR. It is filed as cell-based.
In data set [24] the test system is B. anthracis panel. As to the kind of experiment: microbe, parasite or virus in culture. It is filed as cell-based. The note with it: Bacillus anthracis.
The test system of data set [25] is B. cereus 95/3032. The data set can be described thus: microbe, parasite or virus in culture. Type of data set: cell-based. The settings on record: Bacillus cereus.
The subject of data set [26] is S. pneumoniae 157E. More on the design: species or system mice. The note with it: mouse, in vivo.
Data set [27] has as its system S. pneumoniae 700905. More on the design: species or system mice. The note with it: mouse, in vivo.

Structures are written as SMILES. In brackets after ≈: the same amount, converted by molar mass. Where two headings read alike, the source gives them in different places.

Consider `COc1ccc(-c2cc(CNC(C)CF)c(O)c3c2C[C@H]2C[C@H]4[C@H](N(C)C)C(O)=C(C(N)=O)C(=O)[C@@]4(O)C(O)=C2C3=O)cn1` (stereo partly shown) [AM], for which the Tox50 was 92.85 µg/mL in data set [1] and >100 µg/mL in data set [7]. Further, the MIC in data set [2] was 0.06 µg/mL (≈ 0.0983 µM); in [3], 0.25 µg/mL (≈ 0.409 µM); in [4], 0.25 µg/mL (≈ 0.409 µM); in [5], 0.12 µg/mL (≈ 0.197 µM); in data set [8], 0.13 µg/mL (≈ 0.213 µM); in [9] it was 0.06 µg/mL (≈ 0.0983 µM). For the same compound, the MIC in [10] and in [11] was 0.06 µg/mL (≈ 0.0983 µM) throughout. In addition, the responders at 50 mg/kg in data set [6] (po) stood at 0%. The responders at 5 mg/kg in data set [6] was 100%.
In the case of `CN(C)c1cc(CN2Cc3ccccc3C2)c(O)c2c1C[C@H]1C[C@H]3[C@H](N(C)C)C(O)=C(C(N)=O)C(=O)[C@@]3(O)C(O)=C1C2=O` [AI], the Tox50 in [1] and in data set [7] was >100 µg/mL throughout. Besides, the MIC in data set [2] is 0.06 µg/mL (≈ 0.102 µM); in data set [3], 0.5 µg/mL (≈ 0.849 µM); in data set [4] it was 0.5 µg/mL (≈ 0.849 µM); in data set [5], 0.12 µg/mL (≈ 0.204 µM); in data set [8] it was 0.5 µg/mL (≈ 0.849 µM); in [9] it was 0.06 µg/mL (≈ 0.102 µM). The MIC in data set [10] and in [11] was < 0.03 µg/mL in each case. Besides, the responders at 10 mg/kg in data set [6] (po) stood at 0%. Moreover, the responders at 5 mg/kg in data set [6] worked out at 40%.
The IC50 is the concentration at which inhibition is half-maximal. Broadly, the IC90 is the concentration at which the effect reaches the 90% level. For the compound `C[C@H]1c2cccc(O)c2C(=O)C2=C(O)[C@]3(O)C(=O)C(C(N)=O)=C(O)[C@@H](N(C)C)[C@@H]3[C@@H](O)[C@@H]21` [Doxycycline, reference compound], the MIC in data set [12] was 4 µg/mL (≈ 9 µM); in [13], ≤ 0.06 µg/mL; in data set [15], 0.06 µg/mL (≈ 0.135 µM); in data set [2] it was 4 µg/mL (≈ 9 µM); in [3], 4 µg/mL (≈ 9 µM); in data set [4] it was 16 µg/mL (≈ 36 µM). Moreover, the MIC in [5] was 1 µg/mL (≈ 2.25 µM); in data set [19], 4 µg/mL (≈ 9 µM); in data set [8] it was 4 µg/mL (≈ 9 µM); in data set [20], 0.06 µg/mL (≈ 0.135 µM); in data set [21] (Staphylococcus aureus, RN4250), 4 µg/mL (≈ 9 µM); in data set [9], < 0.03 µg/mL. For the same compound, the MIC in data set [10] is 0.06 µg/mL (≈ 0.135 µM); in data set [11], 0.12 µg/mL (≈ 0.27 µM); in [25] it was ≤ 0.06 µg/mL. For the same compound, the IC50 was 3.9 µg/mL (≈ 8.78 µM) in data set [14] (read-out: Peptidoglycan synthesis IC50) and < 0.03 µg/mL in [22] (read-out: Protein synthesis IC50). Further, the IC90 in [14] (read-out: Peptidoglycan synthesis IC90) is 18.2 µg/mL (≈ 41 µM); in data set [22] (read-out: Protein synthesis IC90) it was < 0.03 µg/mL. In addition, the “effect on reactivity of nucleotides within the 16S rRNA (chemical footprint)” value in data set [16] is “affect the reactivity of nucleotides”. Moreover, in data set [17], the “inhibition of protein synthesis in words” value is “potent inhibitors of protein synthesis”. Moreover, the PD50 in data set [18] (iv) came to 7.1 mg/kg; in [18] (po), 35.3 mg/kg. Moreover, the susceptibility in words entry in data set [21] is “resistant”; in [23], “fully doxycycline-resistant”. Moreover, in data set [24], the MIC50 was determined as 0.06 µg/mL (≈ 0.135 µM). This compound showed an MIC90 in data set [24] of 0.25 µg/mL (≈ 0.563 µM).
Consider `CN(C)c1cc(CN2CCC(F)(F)CC2)c(O)c2c1C[C@H]1C[C@H]3[C@H](N(C)C)C(O)=C(C(N)=O)C(=O)[C@@]3(O)C(O)=C1C2=O` [Compound H], for which the Tox50 in data set [1] and in data set [7] was >100 µg/mL in each case. The MIC in data set [2] was 0.06 µg/mL (≈ 0.102 µM); in data set [3] it was 0.35 µg/mL (≈ 0.593 µM); in data set [4] it was 0.5 µg/mL (≈ 0.847 µM); in data set [5] it was < 0.03 µg/mL; in data set [8], 0.5 µg/mL (≈ 0.847 µM); in [9] it was < 0.03 µg/mL. In addition, the MIC in data set [10] and in data set [11] was < 0.03 µg/mL each time. Besides, in data set [26], the “IV and PO efficacy in words” value was “exhibits IV and PO efficacy”. The PD50 in data set [26] (iv) is listed as 1.1 mg/kg; in data set [26] (po) it was 5 mg/kg; in data set [18] (iv), <5.0 mg/kg; in data set [18] (po) it was 3.6 mg/kg; in data set [27] (iv) it was 2.2 mg/kg; in data set [27] (po) it was 12.7 mg/kg. Moreover, the “oral activity in words” value in data set [26] (po) is reported as “exhibited oral activity”. Further, the “efficacy in model of lung infection in words” value in data set [18] is recorded as “efficacious”.
For `CN(C)c1cc(CN2CCC3CCCCC3C2)c(O)c2c1C[C@H]1C[C@H]3[C@H](N(C)C)C(O)=C(C(N)=O)C(=O)[C@@]3(O)C(O)=C1C2=O` (stereo partly shown) [AJ], the Tox50 in data set [1] and in [7] was >100 µg/mL in each case. Further, the MIC was 0.06 µg/mL (≈ 0.0986 µM) in data set [2]; 0.5 µg/mL (≈ 0.821 µM) in [3]; 0.5 µg/mL (≈ 0.821 µM) in data set [4]; < 0.03 µg/mL in data set [5]; 0.5 µg/mL (≈ 0.821 µM) in data set [8]; < 0.03 µg/mL in data set [9]. Moreover, the MIC in data set [10] and in data set [11] was < 0.03 µg/mL throughout. Besides, the responders at 50 mg/kg in data set [6] (po) is 80%. The responders at 5 mg/kg in [6] came out at 100%.
